# Measurements published in patent EP4803519A1, “NOVEL PRMT5 INHIBITOR AND USE THEREOF” (Shanghai Apeiron Therapeutics Company Limited, priority 2023, dated 2025).
# Experiments:
# [1] = tested on: HCT-116 MTAP(-/-)deleted cells; experiment: Inhibitory activity on proliferation of HCT-116 MTAP(-/-)deleted cells (Cell-Titer Glo); format: cell-based; conditions: Homo sapiens, 144 h, incubated 6 d, 0-1,000 nM
# Method: (§1) Materials and cells: HCT-116 MTAP(-/-)deleted cells were purchased from Kyinno Biotechnology (China); RPMI-1640 medium, and fetal bovine serum were purchased from Thermo Fisher (United States); 384-well plates were purchased from PerkinElmer (United States); Cell-Titer Glo kit was purchased from Promega (United States).
# Cell culture: HCT116 MTAP(-/-)deleted cells were cultured with RPMI 1640 medium containing 10% fetal bovine serum at 37°C in 5% carbon dioxide. Only cells in the logarithmic growth phase could be used for the test.
# Test of inhibitory activity on cell proliferation: The Cell-Titer Glo kit was used to test the proliferation inhibitory activity of the compounds on HCT-116 MTAP(-/-)deleted cells. The cell concentration was adjusted, rendering that cells were inoculated into a 384-well plate at 40 µL per well and incubated overnight at 37°C and 5% carbon dioxide. 80 nL of the compound was added into each well to reach a final concentration of 0-1,000 nM (starting concentration 1,000 nM, 2.5-fold dilution, 10 points), and the cell plate with 0.2% DMSO content was incubated at 37°C and 5% carbon dioxide for 6 d. 40 µL of Cell-Titer Glo reagent was added to test cell viability.
# HCT-116 wild-type cells = experiment: Inhibitory activity on proliferation of HCT-116 wild-type cells (Cell-Titer Glo); format: cell-based; conditions: Homo sapiens, 144 h, incubated 6 d, 0-10,000 nM
# Method: as §1, with “wild-type” for “MTAP(-/-)deleted”
# Cell culture: HCT-116 wild-type cells were cultured in RPMI-1640 medium containing 10% fetal bovine serum at 37°C and 5% carbon dioxide. Only cells in the logarithmic growth phase could be used for the test.
# Test of cell proliferation activity: Cell-Titer Glo kit was used to test the proliferation inhibitory activity of the compound on HCT-116 wild-type cells. The cell concentration was adjusted, rendering that cells were inoculated into a 384-well plate at 40 µL per well and incubated overnight at 37°C and 5% carbon dioxide. 80 nL of the compound was added to each well to reach a final concentration of 0-10,000 nM (starting concentration 10,000 nM, 2.5-fold dilution, 10 points), and the cell plate with 0.2% DMSO content was incubated at 37°C and 5% carbon dioxide for 6 d. 40 µL of Cell-Titer Glo reagent was added to test cell viability.
Structure (SMILES),IC50 [1] [nM],IC50 (HCT-116 wild-type cells) [nM]
"CN(C(=O)c1ccc2nc(N)c3c(c2c1)CCCC3)C1COC(C)(C)c2cc(C(F)(F)F)ccc21 (stereo not drawn) [Example 19, 6-Amino-N-(1,1-dimethyl-7-(trifluoromethyl)isochroman-4-yl)-N-methyl-7,8,9,10-tetrahydrophenanthridine-2-carboxamide]",318,7210
CN(C(=O)c1cc2c(cn1)nc(N)c1cnn(C)c12)C1COC2(CCC2)c2cc(C(F)(F)F)ccc21 (stereo not drawn) [Example 31],6.2,285
"CN(C(=O)c1ccc2nc(N)c3cnn(C)c3c2c1)[C@@H]1COC(C)(C)c2cc(N3CC4COCC4C3)ccc21 (stereo partly drawn) [Example 56, 4-Amino-N-((4S)-1,1-dimethyl-7-(tetrahydro-1H-furo[3,4-c]pyrrol-5(3H)-yl)isochroman-4-yl)-N,1-dimethyl-1H-pyrazolo[4,3-c]quinoxaline-8-carboxamide]",4.4,1330
CN(C(=O)c1ccc2nc(N)c3cnn(C)c3c2c1)C1COC(C)(C)c2cc(-c3cnc4cnccn34)ccc21 (stereo not drawn) [Example 48],7.9,435
"CN(C(=O)c1ccc2nc(N)c3c(c2c1)OCCO3)C1COC(C)(C)c2cc(C(F)(F)F)ccc21 (stereo not drawn) [Example 2, 5-Amino-N-(1,1-dimethyl-7-(trifluoromethyl)isochroman-4-yl)-N-methyl-2,3-dihydro-[1,4]dioxa[2,3-c]quinoline-9-carboxamide]",> 3000,> 10000
CN(C(=O)c1ccc2nc(N)c3cnn(C)c3c2c1)[C@@H]1COC(C)(C)c2nc(N3CCOCC3)ccc21 [Example 54],5.8,1810
"CN(C(=O)c1ccc2nc(N)c3cnn(C)c3c2c1)C1COC(C)(C)c2cc(N3CCC(F)(F)C3)ccc21 (stereo not drawn) [Example 74, 4-Amino-N-(7-(3,3-difluoropyrrolidin-1-yl)-1,1-dimethylisochroman-4-yl)-N,1-dimethyl-1H-pyrazolo[4,3-c]quinoxaline-8-carboxamide]",10.5,2110
"CN(C(=O)c1ccc2nc(N)c3cnn(C)c3c2c1)[C@@H]1COC(C)(C)c2cc(C3=CCOCC3)ccc21 [Example 57, (S)-4-amino-N-(7-(3,6-dihydro-2H-pyran-4-yl)-1,1-dimethylisochroman-4-yl)-N,1-dimethyl-1H-pyrazolo[4,3-c]quinoxaline-8-carboxamide]",5.2,880
"CN(C(=O)c1ccc2nc(N)c3cnn(C)c3c2c1)C1COC2(CCC2)c2nc(N3CCOCC3)ccc21 (stereo not drawn) [Example 53, 4-amino-N,1-dimethyl-N-(2'-morpholino-5',6'-dihydrospiro[cyclobutane-1,8'-pyrano[3,4-b]pyridin]-5'-yl)-1H-pyrazolo[4,3-c]quinoxaline-8-carboxamide]",312,> 10000
"CN(C(=O)c1ccc2nc(N)c3cnn(C)c3c2c1)[C@@H]1COC(C)(C)c2cc(N3CCC4(CC3)COC4)ccc21 [Example 75, (S)-4-amino-N-(1,1-dimethyl-7-(2-oxa-7-azaspiro[3.5]nonan-7-yl)isochroman-4-yl)-N,1-dimethyl-1H-pyrazolo[4,3-c]quinoxaline-8-carboxamide]",8.2,2610
"Cn1ncc2c(N)nc3cnc(C(=O)N(C4CC4)C4COC5(CCC5)c5cc(C(F)(F)F)ccc54)cc3c21 (stereo not drawn) [Example 87, 4-Amino-N-cyclopropyl-1-methyl-N-(7'-(trifluoromethyl)spiro[cyclobutane-1,1'-isochroman]-4'-yl)-1H-pyrazolo[4,3-c][1,7]naphthyridine-8-carboxamide]",11.2,763
"CN(C(=O)c1ccc2nc(N)c3c(c2c1)CCC3)C1COC(C)(C)c2cc(C(F)(F)F)ccc21 (stereo not drawn) [Example 11, 4-Amino-N-(1,1-dimethyl-7-(trifluoromethyl)isochroman-4-yl)-N-methyl-2,3-dihydro-1H-cyclopenta[c]quinoline-8-carboxamide]",147,3120
CN(C(=O)c1cc2c(cc1C(F)(F)F)nc(N)c1cnn(C)c12)[C@@H]1COC2(CCC2)c2cc(C(F)(F)F)ccc21 [Example 77],9.8,1030
"CN(C(=O)c1ccc2nc(N)c3cnn(C)c3c2c1)C1COC(C)(C)c2cc(C(F)(F)F)ccc21 (stereo not drawn) [Example 1, 4-amino-N-(1,1-dimethyl-7-(trifluoromethyl)isochroman-4-yl)-N,1-dimethyl-1H-pyrazolo [4,3-c] quinoline-8-carboxamide]",5.2,1200
"CN(C(=O)c1ccc2nc(N)c3cnn(C)c3c2c1)[C@@H]1COC(C)(C)c2cc(N3CC(F)(F)C3)ccc21 [Example 76, (S)-4-amino-N-(7-(3,3-difluoroazetidin-1-yl)-1,1-dimethylisochroman-4-yl)-N,1-dimethyl-1H-pyrazolo[4,3-c]quinoxaline-8-carboxamide]",6.1,2520
"CN(C(=O)c1ccc2nc(N)c3ccsc3c2c1)C1COC(C)(C)c2cc(C(F)(F)F)ccc21 (stereo not drawn) [Example 3, 4-Amino-N-(1,1-dimethyl-7-(trifluoromethyl)isochroman-4-yl)-N-methylthieno[3,2-c]quinoline-8-carboxamide]",435,7540
"CN(C(=O)c1ccc2nc(N)c3ccccc3c2c1)C1COC(C)(C)c2cc(C(F)(F)F)ccc21 (stereo not drawn) [Example 20, 6-Amino-N-(1,1-dimethyl-7-(trifluoromethyl)isochroman-4-yl)-N-methylphenanthridine-2-carboxamide]",738,5870
CN(C(=O)c1ccc2nc(N)c3cnn(C)c3c2c1)[C@@H]1COC(C)(C)c2cc(N3CCOCC3)ncc21 [Example 55],20.2,> 10000
